DC50 and Dmax data for 25 molecules are collected here from patent US20250215012A1, “IKZF2 DEGRADERS AND USES THEREOF” (REGENTS OF THE UNIVERSITY OF MICHIGAN, priority 2022, published 2025).

Some results are limits rather than exact numbers.

The target in this assay is IKZF2 (Homo sapiens (Human), UniProt Q96SW2+Q9UKS7). The assay is described as follows: IKZF2 HiBiT Assay (Jurkat-IKZF2-HiBiT cell line). Format: cell-based. The settings on record: Jurkat-IKZF2-HiBiT cells, 24 hours; for DC50: read-out: HiBit assay degradation analysis DC50; for Dmax: read-out: HiBit assay degradation analysis Dmax. In a few lines:
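IKZF2 degradation was assessed as HiBiT luminescence in Jurkat-IKZF2-HiBiT cells, using lytic detection after 24 h of compound treatment at 37 °C, 5% CO2.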

Chain of IKZF2 (Q9UKS7 whole entry): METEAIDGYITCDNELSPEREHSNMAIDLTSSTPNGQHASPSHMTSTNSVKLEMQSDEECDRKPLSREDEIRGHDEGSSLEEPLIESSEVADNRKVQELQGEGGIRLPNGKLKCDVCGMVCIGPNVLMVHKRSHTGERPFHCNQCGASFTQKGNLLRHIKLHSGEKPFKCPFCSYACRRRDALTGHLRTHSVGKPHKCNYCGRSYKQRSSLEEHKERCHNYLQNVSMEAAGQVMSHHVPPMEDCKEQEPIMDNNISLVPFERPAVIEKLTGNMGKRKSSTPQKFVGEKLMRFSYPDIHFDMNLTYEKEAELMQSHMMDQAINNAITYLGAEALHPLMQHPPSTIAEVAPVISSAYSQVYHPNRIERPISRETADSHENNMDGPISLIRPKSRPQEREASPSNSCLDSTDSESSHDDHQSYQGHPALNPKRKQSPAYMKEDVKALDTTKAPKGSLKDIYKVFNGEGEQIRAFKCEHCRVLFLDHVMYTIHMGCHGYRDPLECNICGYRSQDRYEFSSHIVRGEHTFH
Chain of IKZF2 (Q96SW2 whole entry): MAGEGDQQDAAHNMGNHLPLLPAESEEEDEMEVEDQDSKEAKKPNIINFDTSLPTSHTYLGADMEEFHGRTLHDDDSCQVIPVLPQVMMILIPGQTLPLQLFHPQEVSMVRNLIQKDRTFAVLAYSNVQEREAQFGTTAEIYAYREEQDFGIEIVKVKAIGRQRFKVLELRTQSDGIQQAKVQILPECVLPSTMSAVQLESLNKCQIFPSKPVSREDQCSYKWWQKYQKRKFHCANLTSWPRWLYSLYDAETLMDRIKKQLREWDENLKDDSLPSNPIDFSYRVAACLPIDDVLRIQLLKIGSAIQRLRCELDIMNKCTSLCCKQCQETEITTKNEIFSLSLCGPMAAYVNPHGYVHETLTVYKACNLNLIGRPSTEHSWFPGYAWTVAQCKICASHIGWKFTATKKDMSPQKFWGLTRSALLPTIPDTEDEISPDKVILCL
Chain of IKZF2 (Q16531 whole entry partner): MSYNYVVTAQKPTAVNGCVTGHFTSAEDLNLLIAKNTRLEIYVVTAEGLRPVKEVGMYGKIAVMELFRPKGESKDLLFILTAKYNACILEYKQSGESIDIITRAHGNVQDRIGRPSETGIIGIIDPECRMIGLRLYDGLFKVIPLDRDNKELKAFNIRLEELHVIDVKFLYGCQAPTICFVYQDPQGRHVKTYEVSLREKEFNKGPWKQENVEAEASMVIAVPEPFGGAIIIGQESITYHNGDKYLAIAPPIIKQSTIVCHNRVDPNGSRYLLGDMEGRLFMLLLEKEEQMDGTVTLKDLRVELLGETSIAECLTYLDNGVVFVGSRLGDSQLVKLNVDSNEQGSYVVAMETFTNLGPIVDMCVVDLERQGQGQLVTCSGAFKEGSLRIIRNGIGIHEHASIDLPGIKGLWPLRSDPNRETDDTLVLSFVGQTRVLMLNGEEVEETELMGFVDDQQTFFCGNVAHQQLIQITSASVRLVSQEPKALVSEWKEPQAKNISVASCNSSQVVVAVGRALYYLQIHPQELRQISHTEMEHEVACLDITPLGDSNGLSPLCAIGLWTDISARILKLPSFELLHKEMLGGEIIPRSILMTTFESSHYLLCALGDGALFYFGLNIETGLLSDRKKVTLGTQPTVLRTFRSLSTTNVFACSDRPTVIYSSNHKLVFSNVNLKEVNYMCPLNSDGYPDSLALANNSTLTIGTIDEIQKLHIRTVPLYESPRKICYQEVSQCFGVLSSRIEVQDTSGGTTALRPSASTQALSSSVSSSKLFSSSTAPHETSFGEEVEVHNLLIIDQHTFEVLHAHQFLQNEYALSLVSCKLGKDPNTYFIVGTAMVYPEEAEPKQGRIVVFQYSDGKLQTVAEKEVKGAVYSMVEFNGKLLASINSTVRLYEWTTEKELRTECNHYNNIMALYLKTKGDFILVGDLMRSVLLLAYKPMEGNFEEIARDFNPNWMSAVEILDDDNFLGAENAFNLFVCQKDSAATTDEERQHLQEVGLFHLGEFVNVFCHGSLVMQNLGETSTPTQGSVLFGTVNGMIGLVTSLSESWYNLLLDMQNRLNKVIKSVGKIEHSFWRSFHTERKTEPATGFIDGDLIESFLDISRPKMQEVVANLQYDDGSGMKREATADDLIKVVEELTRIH

As for `O=C1CCC(N2Cc3c(ccc4c3OCC43CCN(Cc4cccc5cccnc45)CC3)C2=O)C(=O)N1` (stereo not shown) [Compound A41, 3-(6-oxo-1′-(quinolin-8-ylmethyl)-6,8-dihydro-2H,7H-spiro[furo[2,3-e]isoindole-3,4′-piperidin]-7-yl)piperidine-2,6-dione], the 50% degradation concentration (DC50) (usually the concentration giving 50% degradation) lay within 50 to 200 nM and the Dmax – broadly, the largest share of the target that was removed – fell in the range of 60 to 80%.

For `Cn1cc2cc(CN3CCC4(CC3)COc3c4ccc4c3CN(C3CCC(=O)NC3=O)C4=O)ccc2n1` (stereo not shown) [Compound A68, 3-(1′-((2-methyl-2H-indazol-5-yl)methyl)-6-oxo-6,8-dihydro-2H,7H-spiro[furo[2,3-e]isoindole-3,4′-piperidin]-7-yl)piperidine-2,6-dione], the DC50 was > 500 nM and the Dmax lay within 40 to 60%.

As to `O=C1CC[C@H](N2Cc3c(ccc4c3OCC43CCN(Cc4ccn(-c5ccc(Cl)cc5)n4)CC3)C2=O)C(=O)N1` [Compound A315, (S)-3-(1′-((1-(4-chlorophenyl)-1H-pyrazol-3-yl)methyl)-6-oxo-6,8-dihydro-2H,7H-spiro[furo[2,3-e]isoindole-3,4′-piperidin]-7-yl)piperidine-2,6-dione], the 50% degradation concentration (DC50) was in the range of 50 to 200 nM and the Dmax lay in the range of 40 to 60%.

Regarding `O=C1CC[C@H](N2Cc3c(ccc4c3OCC43CCN(Cc4ccc5cn(C6COC6)nc5c4)CC3)C2=O)C(=O)N1` [Compound A285, (S)-3-(1′-((2-(oxetan-3-yl)-2H-indazol-6-yl)methyl)-6-oxo-6,8-dihydro-2H,7H-spiro[furo[2,3-e]isoindole-3,4′-piperidin]-7-yl)piperidine-2,6-dione], the 50% degradation concentration (DC50) was < 50 nM and the Dmax lay within 60 to 80%.

With `O=C1CCC(N2Cc3c(ccc4c3OCC43CCN(CC4CCN(c5ccccc5)C4)CC3)C2=O)C(=O)N1` (stereo not shown) [Compound A138, 3-(6-oxo-1′-((1-phenylpyrrolidin-3-yl)methyl)-6,8-dihydro-2H,7H-spiro[furo[2,3-e]isoindole-3,4′-piperidin]-7-yl)piperidine-2,6-dione], the 50% degradation concentration (DC50) was > 500 nM and the Dmax was 40 to 60%.

For `CCOc1cc(CN2CCC3(CC2)COc2c3ccc3c2CN(C2CCC(=O)NC2=O)C3=O)ccn1` (stereo not shown) [Compound A247, 3-(1′-((2-ethoxypyridin-4-yl)methyl)-6-oxo-6,8-dihydro-2H,7H-spiro[furo[2,3-e]isoindole-3,4′-piperidin]-7-yl)piperidine-2,6-dione], the DC50 was > 500 nM and the Dmax is < 40%.

Consider `Cn1ncc(-c2cccc(CN3CCC4(CC3)COc3c4ccc4c3CN([C@H]3CCC(=O)NC3=O)C4=O)c2)n1` [Compound A296, (S)-3-(1′-(3-(2-methyl-2H-1,2,3-triazol-4-yl)benzyl)-6-oxo-6,8-dihydro-2H,7H-spiro[furo[2,3-e]isoindole-3,4′-piperidin]-7-yl)piperidine-2,6-dione], for which the 50% degradation concentration (DC50) is < 50 nM and the greatest degradation seen (Dmax) was 60 to 80%.

`O=C1CC[C@H](N2Cc3c(ccc4c3OCC43CCN(Cc4cccc(C5CCOC5)c4)CC3)C2=O)C(=O)N1` (stereo partly drawn) [Compound A304, (3S)-3-(6-oxo-1′-(3-(tetrahydrofuran-3-yl)benzyl)-6,8-dihydro-2H,7H-spiro[furo[2,3-e]isoindole-3,4′-piperidin]-7-yl)piperidine-2,6-dione]: the half-maximal degradation concentration (DC50) is > 500 nM and the Dmax was 40 to 60%.

In the case of `O=C1CCC(N2Cc3c(ccc4c3OCC43CCN(Cc4cccc5ccncc45)CC3)C2=O)C(=O)N1` (stereo not shown) [Compound A40, 3-(1′-(isoquinolin-8-ylmethyl)-6-oxo-6,8-dihydro-2H,7H-spiro[furo[2,3-e]isoindole-3,4′-piperidin]-7-yl)piperidine-2,6-dione], the DC50 lay in the range of 50 to 200 nM and the greatest degradation seen (Dmax) lay in the range of 60 to 80%.

For `O=C1CCC(N2Cc3c(ccc4c3OCC43CCN(Cc4ccc5oc(=O)[nH]c5c4)CC3)C2=O)C(=O)N1` (stereo not shown) [Compound A165, 3-(6-oxo-1′-((2-oxo-2,3-dihydrobenzo[d]oxazol-5-yl)methyl)-6,8-dihydro-2H,7H-spiro[furo[2,3-e]isoindole-3,4′-piperidin]-7-yl)piperidine-2,6-dione], the DC50 lay within 50 to 200 nM and the Dmax is 60 to 80%.

For `N#CCc1ccc(CN2CCC3(CC2)COc2c3ccc3c2CN(C2CCC(=O)NC2=O)C3=O)cc1` (stereo not shown) [Compound A196, 2-(4-((7-(2,6-dioxopiperidin-3-yl)-6-oxo-7,8-dihydro-2H,6H-spiro[furo[2,3-e]isoindole-3,4′-piperidin]-1′-yl)methyl)phenyl)acetonitrile], the DC50 was 50 to 200 nM and the greatest degradation seen (Dmax) was 60 to 80%.

For the molecule `COCCn1ncc2cc(CN3CCC4(CC3)COc3c4ccc4c3CN(C3CCC(=O)NC3=O)C4=O)ccc21` (stereo not shown) [Compound A342, 3-(1′-((1-(2-methoxyethyl)-1H-indazol-5-yl)methyl)-6-oxo-6,8-dihydro-2H,7H-spiro[furo[2,3-e]isoindole-3,4′-piperidin]-7-yl)piperidine-2,6-dione], the half-maximal degradation concentration (DC50) was > 500 nM and the maximal degradation (Dmax) is < 40%.

In the case of `O=C1CCC(N2Cc3c(ccc4c3OCC43CCN(Cc4cccc5occc45)CC3)C2=O)C(=O)N1` (stereo not shown) [Compound A119, 3-(1′-(benzofuran-4-ylmethyl)-6-oxo-6,8-dihydro-2H,7H-spiro[furo[2,3-e]isoindole-3,4′-piperidin]-7-yl)piperidine-2,6-dione], the DC50 was < 50 nM and the Dmax lay in the range of 60 to 80%.

In the case of `COc1cc(CN2CCC3(CC2)COc2c3ccc3c2CN([C@H]2CCC(=O)NC2=O)C3=O)cc(-c2cnn(C3COC3)c2)c1` [Compound A277], the 50% degradation concentration (DC50) is < 50 nM and the Dmax was > 80%.

In the case of `O=C1CCC(N2Cc3c(ccc4c3OCC43CCN(Cc4cnn(-c5ccc(Cl)cc5)c4)CC3)C2=O)C(=O)N1` (stereo not shown) [Compound A314, 3-(1′-((1-(4-chlorophenyl)-1H-pyrazol-4-yl)methyl)-6-oxo-6,8-dihydro-2H,7H-spiro[furo[2,3-e]isoindole-3,4′-piperidin]-7-yl)piperidine-2,6-dione], the half-maximal degradation concentration (DC50) was < 50 nM and the maximal degradation (Dmax) was in the range of 60 to 80%.

`O=C1CCC(N2Cc3c(ccc4c3OCC43CCN(Cc4cccc5c4CCCO5)CC3)C2=O)C(=O)N1` (stereo not shown) [Compound A218, 3-(1′-(chroman-5-ylmethyl)-6-oxo-6,8-dihydro-2H,7H-spiro[furo[2,3-e]isoindole-3,4′-piperidin]-7-yl)piperidine-2,6-dione]: the DC50 is < 50 nM and the Dmax lay within 60 to 80%.

In the case of `Cn1ncc2cc(F)c(CN3CCC4(CC3)COc3c4ccc4c3CN(C3CCC(=O)NC3=O)C4=O)cc21` (stereo not shown) [Compound A140, 3-(1′-((5-fluoro-1-methyl-1H-indazol-6-yl)methyl)-6-oxo-6,8-dihydro-2H,7H-spiro[furo[2,3-e]isoindole-3,4′-piperidin]-7-yl)piperidine-2,6-dione], the DC50 was > 500 nM and the maximal degradation (Dmax) was in the range of 40 to 60%.

Take `O=C1CCC(N2Cc3c(ccc4c3OCC43CCN(Cc4cnc5c(c4)CCCC5)CC3)C2=O)C(=O)N1` (stereo not shown) [Compound A325, 3-(6-oxo-1′-((5,6,7,8-tetrahydroquinolin-3-yl)methyl)-6,8-dihydro-2H,7H-spiro[furo [2,3-e]isoindole-3,4′-piperidin]-7-yl)piperidine-2,6-dione]: the DC50 is > 500 nM and the maximal degradation (Dmax) was < 40%.

With `COCc1cccc(CN2CCC3(CC2)COc2c3ccc3c2CN(C2CCC(=O)NC2=O)C3=O)c1` (stereo not shown) [Compound A112, 3-(1′-(3-(methoxymethyl)benzyl)-6-oxo-6,8-dihydro-2H,7H-spiro[furo[2,3-e]isoindole-3,4′-piperidin]-7-yl)piperidine-2,6-dione], the DC50 was 200 to 500 nM and the greatest degradation seen (Dmax) lay in the range of 60 to 80%.

`O=C1CCC(N2Cc3c(ccc4c3OCC43CCN(Cc4cccc(C(=O)O)c4)CC3)C2=O)C(=O)N1` (stereo not shown) [Compound A99, 3-((7-(2,6-dioxopiperidin-3-yl)-6-oxo-7,8-dihydro-2H,6H-spiro[furo[2,3-e]isoindole-3,4′-piperidin]-1′-yl)methyl)benzoic acid]: the DC50 was > 500 nM and the Dmax was < 40%.

For the molecule `O=C1CCC(N2Cc3c(ccc4c3OCC43CCN(Cc4cccc(N5CCCC5)c4)CC3)C2=O)C(=O)N1` (stereo not shown) [Compound A96, 3-(6-oxo-1′-(3-(pyrrolidin-1-yl)benzyl)-6,8-dihydro-2H,7H-spiro[furo[2,3-e]isoindole-3,4′-piperidin]-7-yl)piperidine-2,6-dione], the 50% degradation concentration (DC50) is 50 to 200 nM and the greatest degradation seen (Dmax) is 60 to 80%.

Turning to `CC(C)(O)c1ccc(CN2CCC3(CC2)COc2c3ccc3c2CN(C2CCC(=O)NC2=O)C3=O)cc1` (stereo not shown) [Compound A200, 3-(1′-(4-(2-hydroxypropan-2-yl)benzyl)-6-oxo-6,8-dihydro-2H,7H-spiro[furo[2,3-e]isoindole-3,4′-piperidin]-7-yl)piperidine-2,6-dione], the DC50 was > 500 nM and the Dmax was < 40%.

In the case of `COc1cc(CN2CCC3(CC2)COc2c3ccc3c2CN([C@H]2CCC(=O)NC2=O)C3=O)cc(-c2cnn(C)c2)c1` [Compound A280, (S)-3-(1′-(3-methoxy-5-(1-methyl-1H-pyrazol-4-yl)benzyl)-6-oxo-6,8-dihydro-2H,7H-spiro[furo[2,3-e]isoindole-3,4′-piperidin]-7-yl)piperidine-2,6-dione], the DC50 was < 50 nM and the Dmax was > 80%.

As for `Cn1cc(CN2CCC3(CC2)COc2c3ccc3c2CN(C2CCC(=O)NC2=O)C3=O)c(Cl)n1` (stereo not shown) [Compound A257, 3-(1′-((3-chloro-1-methyl-1H-pyrazol-4-yl)methyl)-6-oxo-6,8-dihydro-2H,7H-spiro[furo[2,3-e]isoindole-3,4′-piperidin]-7-yl)piperidine-2,6-dione], the 50% degradation concentration (DC50) is > 500 nM and the maximal degradation (Dmax) is < 40%.

For `O=C1CCC(N2Cc3c(ccc4c3OCC43CCN(Cc4cnn(S(=O)(=O)c5cccc(Cl)c5)c4)CC3)C2=O)C(=O)N1` [Compound A350, (S)-3-(1′-((1-((3-chlorophenyl)sulfonyl)-1H-pyrazol-4-yl)methyl)-6-oxo-6,8-dihydro-2H,7H-spiro[furo[2,3-e]isoindole-3,4′-piperidin]-7-yl)piperidine-2,6-dione], the half-maximal degradation concentration (DC50) is < 50 nM.
